Test results published in patent publication US5491072A, “N-alkylacridan carboxyl derivatives useful for chemiluminescent detection” (Lumigen, Inc., priority 1993, dated 1996).

Assays:
Format in all cases: biochemical
horseradish peroxidase [1] = molecular target: T1, horseradish peroxidase (Armoracia rusticana, UniProt P00433); experiment: Sensitivity of detection of horseradish peroxidase using 1b and sodium perborate; settings: 1b 46 μmol/L, 0.2 mmol/L perborate, 37° C.; for linear assay range for HRP: pH 8.0 tris
T1 sequence (P00433 31-338 limits assumed): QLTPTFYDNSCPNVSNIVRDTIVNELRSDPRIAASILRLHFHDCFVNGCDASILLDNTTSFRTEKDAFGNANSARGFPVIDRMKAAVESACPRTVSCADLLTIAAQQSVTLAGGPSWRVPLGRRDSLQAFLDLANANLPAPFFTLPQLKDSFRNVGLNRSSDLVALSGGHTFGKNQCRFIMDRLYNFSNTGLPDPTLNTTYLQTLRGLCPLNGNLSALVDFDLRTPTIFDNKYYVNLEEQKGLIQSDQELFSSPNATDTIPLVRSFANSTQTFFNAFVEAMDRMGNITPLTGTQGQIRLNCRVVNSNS
Protocol: (§1) The experiments in the following examples were performed using a Turner Designs TD-20e luminometer fitted with neutral density filter for light attenuation. Data collection, analysis and display were software controlled. Constant temperature was maintained by means of an external circulating water bath connected to the luminometer.
(§2) A matrix optimization experiment was done using 1b (0.1 mM-0.05 mM), sodium perborate (3 mM-0.2 mM) and HRP (1.4×10^-18 mol-1.4×10^-14 mol) at 37° C. The final assay reagent consists of 2.25×10^-3 M p-iodophenol, 0.5% Tween 20 and 1×10^-3 M EDTA in pH 8.0, 0.1M tris buffer. The best compromise between sensitivity and dynamic range was obtained using 1b (46 μmol/L) and 0.2 mmol/L perborate. These conditions gave a linear assay for HRP in the range of 0.4×10^-18 to 1.4×10^-14 mol (detection limit S/B=1.4 after 5 min with 1.4×10^-18 mol) or in the range of 1.4×10^-18 to 1.4×10^-15 mol (detection limit S/B-1.5 after 15 min with 1.4×10^-18 mol).
FIGS. 3A to 3C show the correlation of corrected signal to background vs. amount of HRP using solutions containing 0.05 mM 1b, 0.5% Tween 20, 1×10^-3 M EDTA in pH 8.0, 0.1M tris buffer.

horseradish peroxidase [2] = molecular target: T1, horseradish peroxidase; experiment: Effect of pH and buffer salt on chemiluminescence of 1b; settings: 0.1 mM 1b, 0.8 mM H2O2, 2.25 mM p-iodophenol, 1.4×10^-15 mol HRP, 30 min, room temperature
Protocol: as §1
The present invention may be practiced over the pH range of at least 7-9 and functions with different buffering salts. Tubes containing 200 μL of a formulation containing 0.1 mM 1b in the specified buffer, 0.8 mM H2 O2, 2.25 mM p-iodophenol, 0.5% (w/w) Tween 20 and 1 mM EDTA were placed in the luminometer at room temperature. Horseradish peroxidase (1.4×10^-15 mol) was injected and the chemiluminescence intensity determined at 30 min. The time course of the light emission was similar in all four solutions. The optimum pH can vary with changes in the concentrations of the reactants.

horseradish peroxidase [3] = molecular target: T1, horseradish peroxidase; experiment: Sensitivity of detection of horseradish peroxidase using 1b and hydrogen peroxide; settings: 1b 46 μmol/L, 0.2 mmol/L hydrogen peroxide, 37° C.; for linear assay range for HRP: pH 8.0 tris
Protocol: as §1
as §2, with “hydrogen peroxide (4.4 mM-44 μM),” for “sodium perborate (3 mM-0.2 mM) and”, “(9×10^-19 mol-1.4×10^-12” for “(1.4×10^-18 mol-1.4×10^-14”, “hydrogen peroxide.” for “perborate.”, “9×10^-19” for “0.4×10^-18”, “9×10^-19” for “1.4×10^-18”, “S/B=2” for “S/B-1.5”
FIGS. 2A to 2C show the correlation of corrected signal to background vs. amount of HRP using solutions containing 0.05 mM 1b, 0.5% Tween 20, 1×10^-3 M EDTA in pH 8.0, 0.1M tris buffer.

horseradish peroxidase [4] = molecular target: T1, horseradish peroxidase; experiment: Comparison of compounds 1a-e at pH 8.9, time course and total intensity of chemiluminescence; settings: 0.01 mM acridan, 0.1M phosphate pH 8.9, 6.2 mM H2O2, 2.25 mM p-iodophenol, 1×10^-13 mol HRP
Protocol: as §1
A 200 μL volume of a formulation containing 0.01 mM acridan compound 1a-e in 0.1M phosphate buffer, pH 8.9, […] (6.2 mM) H2 O2, 2.25 mM p-iodophenol, 0.5% (w/w) Tween 20 and 1 mM EDTA was reacted with 1×10^-13 mol of horseradish peroxidase. […] Compared below are the peak light intensity (Imax) in relative light units (RLU), the time to maximum light intensity (tmax) and total light output.

CN1c2ccccc2C(C(=O)Oc2ccc(O)cc2)c2ccccc21 [Compound 1b, 4'-Hydroxyphenyl 10-methylacridan-9-carboxylate]
linear assay range for HRP (horseradish peroxidase [1]; after 5 min): 4e-19 to 1.4e-14 mol
linear assay range for HRP (horseradish peroxidase [1]; after 15 min): 1.4e-18 to 1.4e-15 mol
detection limit S/B (horseradish peroxidase [1]; after 5 min with 1.4×10^-18 mol HRP): 1.4
S/B (horseradish peroxidase [2]; 0.1 M phosphate buffer, pH 8.9): 306
S/B (horseradish peroxidase [2]; 0.1 M tris buffer, pH 8.0): 1400
S/B (horseradish peroxidase [2]; 0.1 M tris buffer, pH 8.5): 600
S/B (horseradish peroxidase [2]; 0.1 M tris buffer, pH 8.9): 160
linear assay range for HRP (horseradish peroxidase [3]; after 5 min): 9e-19 to 1.4e-14 mol
linear assay range for HRP (horseradish peroxidase [3]; after 15 min): 9e-19 to 1.4e-15 mol
detection limit S/B (horseradish peroxidase [3]; after 5 min with 9×10^-19 mol HRP): 1.4
detection limit S/B (horseradish peroxidase [3]; after 15 min with 9×10^-19 mol HRP): 2
I max (RLU), peak light intensity (horseradish peroxidase [4]; 0.5% Tween 20, 1 mM EDTA): 2047 RLU
I total (RLU), total light output (horseradish peroxidase [4]): 2 × 10^6 RLU
t max (min), time to maximum light intensity (horseradish peroxidase [4]): 4.2 min
